In patent US9420780B2, “Composition, method for producing the composition, and phytosanitary formulation containing same” (RHODIA OPERATIONS, priority 2011, dated 2016):

Assay: Solubility of agrochemical active ingredients in the solvent compositions: visual observation at 25° C., at 0° C. for 7 days (CIPAC MT39), and at 0° C. with nucleation
Type: physicochemical
Details: tebuconazole 300 g/L EC
Protocol: 1. Description of the Tests Performed: The formulations were prepared by dilution of various active ingredients reported in the table here below in the compositions 1 to 4 (solvents according to the invention) synthesised here above: a) Visual observation at 25° C.: the appearance of the formulation is noted and the possible presence of crystals is eventually recorded. b) Visual observation at 0° C.: the formulation is placed for a period of 7 days at 0° C. and the appearance of the formulation is noted and the possible presence of crystals is eventually recorded (CIPAC test MT39). c) Visual observation at 0° C. with nucleation (for introduction into the liquid of a crystal of the pure active ingredient): […] The appearance of the formulation is noted and the possible presence of crystals or growth of the crystal introduced is eventually recorded. The active ingredients used are commercially available.

SMILES: CN1CCCC1=O [Solvent 6, N-methylpyrrolidone]
- State of the solution at +25° C.: Clear
- State of the solution at 0° C. (7 days at 0° C.): Clear
- State of the solution at 0° C. after seeding (crystal introduced, further 7 days at 0° C.): Crystal
